Data from patent US20260069694A1, “IDENTIFICATION OF HIGHLY IMMUNOSUPRESIVE TREG POPULATION IN TUMOR MICROENVIRONMENTS” (THE TRUSTEES OF COLUMBIA UNIVERSITY IN THE CITY OF NEW YORK, priority 2023, published 2026).
Entries after “also recorded” stand apart in the source; their conditions may differ.

What was measured:
metastatic PDAC = settings: in combination with gemcitabine (Gem) and nab-paclitaxel (Nab-P), phase 1b; cited from earlier work
[1] = tested on: orthotopic KPC-derived PDAC tumors; test: Treatment study in orthotopic syngeneic KPC-derived PDAC mice: tumor weight; assay type: in vivo, mouse; settings: 3 times a week for 2 weeks
Method: Syngeneic PDAC mice were generated by orthotopic pancreatic injections of 5.0×10^5 KPC-derived PDAC cells into 8- to 10-week-old C57B6129SF1/J hybrid mice (Jackson™), which are the offspring of a cross between C57BL/6J females and 129S1/SvImJ males. In some experiments, the tumor growth was measured by luminescence imaging.
The treatment studies in orthotopic syngeneic PDAC mice were performed as follows. Eight days after orthotopic implantation of 5.0×10^5 KPC-derived PDAC cells, the mice were randomized into respective treatment cohorts, such as intravenous (IV) phosphate buffered saline (PBS) alone, IV iRGD alone (300 μg/25 g), IV PBS+IP antimouse PD-L1 mAb (200 μg/mouse; clone MIH6; BioLegend™), IV iRGD+IP anti-mouse PD-L1 mAb, IV PBS+IV Gem (4 mg/kg; MilliporeSigma™), and IV iRGD+IV GEM+IP anti-mouse PD-L1 mAb. The treatment was given 3 times a week for 2 weeks starting 8 days after tumor cell implantation. The tumors and major organs were harvested at the end of the studies on day 22, weighed, and processed for flow cytometry, IF, and IHC. The treatment studies were terminated according to the guidelines by the IACUC at Columbia University. Treatment studies in transgenic KPC mice were performed as previously described.
C57B6129SF1/J hybrid mice bearing orthotopic KPC-derived PDAC tumors were treated with PBS or iRGD 3 times a week for 2 weeks. […]

huPDAC tumors = test: Humanized PDAC (huPDAC) mice treated with iRGD monotherapy; assay type: in vivo, mouse
Description: In summary, this report conveys an important concept of tumor-specific Treg targeting, which can be achieved using an affinity probe that targets the αvβ5 integrin expressed on tumor-resident Tregs. […] The immune system of huPDAC mice is replaced by functional human immune cells, which react to antigens in a human-leukocyte antigen (HLA)-restricted manner, allowing us to study the response of human immunity against human PDAC in mice. […] Our finding that patient-derived PDAC tissue also harbors αvβ5 integrin- and NRP-1-positive Tregs further supports the argument that iRGD-mediated Treg targeting can be achieved in human PDAC patients. Clinical trials are now being organized to explore the therapeutic benefit of adding an ICB to iRGD-based chemotherapy in PDAC patients.

[2] = tested on: primary PDAC tumors of transgenic KPC mice; test: Long-term treatment of transgenic KPC mice; IHC/IF of primary PDAC tumors; assay type: in vivo, mouse; settings: per high-power field
Method: Long-term treatment studies using combinations of iRGD, Gem, and Nab-P in transgenic KPC mice and subsequent immunohistochemistry (IHC) were performed as previously reported.
For the data presented in FIG. 1, primary PDAC tumors were collected from transgenic KPC mice that received long-term treatment with Gem, iRGD, or iRGD+Gem as part of a previously published survival study. The primary PDAC tumors were immunohistochemically analyzed for the presence of CD8+ T cells.
Primary PDAC tumors were collected from transgenic KPC mice that received long-term treatment with or without Gem, iRGD, or iRGD+Gem as part of a previously published survival study. The presence of Foxp3+ Tregs in the primary PDAC tumors was analyzed by immunofluorescence.

Sequence: CRGDKGPDC [iRGD]
- efficacy against metastatic PDAC (metastatic PDAC): promising preliminary efficacy
- tumor growth (tumor weight at end of study) [1]: did not inhibit tumor growth; also recorded: did not affect tumor growth
- CD8/Treg ratio in the huPDAC tumors (huPDAC tumors): increased the CD8/Treg ratio in the tumors
- number of CD8+ T cells in the PDAC tissue ([2]; IHC, long-term treatment): increased the number of CD8+ T cells
- PDAC-resident cells expressing Foxp3 (Foxp3+ Tregs) ([2]; immunofluorescence, compared to the other arms): less PDAC-resident cells expressing Foxp3
